Laboratory results as given in publication PMC3592886, “Utilization of Quantitative In Vivo Pharmacology Approaches to Assess Combination Effects of Everolimus and Irinotecan in Mouse Xenograft Models of Colorectal Cancer” (PLoS ONE, 2013).
Like-named read-outs stand apart in the source and are kept apart here. Marks after values point to notes of the source that are not given here.

How the values were obtained:
HT29 tumor xenografts = assay: Therapeutic study and tumor growth modeling, HT29 tumor xenografts; assay type: in vivo, mice
Procedure: (§1) For tumor bearing studies, cells were harvested and resuspended in a 1∶1 mixture of serum-free RPMI and Matrigel (BD Bioscience). One million cells were injected subcutaneously into each rear flank of mice. Tumor volumes, measured by digital calipers, were calculated by V (mm^3) = length x (width)^2 x 0.5236.
(§2) When HT29 and HCT116 tumors reached an average volume of ∼325 mm^3 animals were randomized into four treatment groups (n = 9–10 mice per group): (i) vehicles, (ii) 5 mg/kg everolimus (RAD) by oral gavage (PO) daily, (iii) 10 mg/kg irinotecan (IRI) once weekly by intravenous (iv) tail vein injection, and (iv) a combination of RAD and IRI. Everolimus, diluted in sterile water, and irinotecan, diluted in sterile 0.9% saline, were administered at 4 mL/kg. Animals were treated for 28 days. Tumor volumes and body weights were measured 2–3 times weekly. On day 28 of treatment 3–6 animals per group were sacrificed, approximately 24 hours following everolimus treatment, and tumors harvested for metabolomic analysis.
(§3) Data from the in vivo study was modeled to assess the therapeutic benefit of adding everolimus to irinotecan. The model used was similar to a previously published model for assessing combination therapy. Some modifications were made and details of the model can be found in Supplement S1 (section SA.3.) and Supplement S2. All modeling was performed on individual animal tumor volume data and modeled with SAAM II version 2.1. […]
(§4) are presented in Tables 1 and 2 in Supplement B. Individual fits of the model to the data can also be found in Supplement B. The average growth terms for each tumor type were then fixed at the average parameter value and used to determine the single agent effects (kx) of each compound by fitting the following equation: […] where cx(t) is the concentration of drug x with respect to time. Individual tumors were modeled and the average value of kx determined (Supplement B Tables 1 & 2) for each single agent treatment. This value was used to fit the following equation to the combination tumor growth data to determine the degree of interaction between the two drugs.
(§5) , the interaction term, was determined for each individual tumor for each tumor type and the data is presented in Table 2 in the main text and individual fits can be found in Supplement B.
(§6) We determined that values greater than 1.3 are synergistic, between 1.3 and 0.7 are additive, between 0.7 and 0 are less than additive, and negative values for are antagonistic. These ranges were selected based on the model fits. The CV% for the model fits ranged from 15 to 50 with an average CV% of approximately 30%. Therefore we assume an average variance of 30% making the additive range from 1.3 to 0.7 (1 + 30% and 1- 30%). […]

HCT116 tumor xenografts = assay: Therapeutic study and tumor growth modeling, HCT116 tumor xenografts; assay type: in vivo, mice
Procedure: as §1, §2, §3, §4, §5, §6

[1] = Irinotecan and SN-38 plasma PK model and simulations in mice; settings: PK model parameter, fit to data of previous publications (37-39)
Source text: The pharmacokinetic models used for everolimus and irinotecan and SN38 in the above equations can be found in Supplement B. Data used to fit the everolimus pharmacokinetics was obtained in the study presented here. In the above equations, for irinotecan treatments, SN38 concentration was used to determine the effect since it is the active agent. The data used to fit the irinotecan and SN38 pharmacokinetics was obtained from previous publications (37-39).
Irinotecan and SN-38 Plasma PK […]

HT29 tumors = assay: NMR-based metabolomics of HT29 tumors; assay type: in vivo, mice; settings: end of study
Procedure: as §2
For metabolomic analysis, animals were fasted for 4 hours then received 250 mg/kg of [1-^13C] glucose (Cambridge Isotopes, Cambridge, MA) by IV injection 60 minutes prior to tumor harvesting. Snap-frozen tumor specimens underwent two-phase acid extraction procedure (using 8% perchloric acid) previously established and extensively published [19]–[22]. Further details may also be found in Supplement S1 (section SA.2.).

HT29 cells = assay: Sulforhodamine B (SRB) anti-proliferation assay, HT29; assay type: cell-based
Procedure: (§7) Cytoxic effects were determined using the sulforhodamine B (SRB) assay. Briefly, 5000 viable cells were plated into 96-well plates and incubated overnight prior to exposure with different concentrations of drugs. Cells were exposed to increasing concentrations of everolimus (0–200 nM), SN38 (0–8 nM), and combinations of the two. Following a 72 hour incubation, media was removed and cells were fixed with cold 10% trichloroacetic acid for 30 minutes at 4° C. Cells were washed with water and stained with 0.4% SRB for 30 minutes at room temperature. Cells were washed again with 1% acetic acid and stain was solubilized with 10 mM tris at room temperature and read at an OD of 565 nm. […] The resulting Combination Index (CI) was used as a quantitative measure of the degree of interaction between different drugs. A CI value equal to 1 denotes additivity; CI greater than 1, antagonism; CI less than 1, synergism.

HCT116 cells = assay: Sulforhodamine B (SRB) anti-proliferation assay, HCT116; assay type: cell-based
Procedure: as §7

HCT8 cells = assay: Sulforhodamine B (SRB) anti-proliferation assay, HCT8; assay type: cell-based; settings: RAD (20 nM), SN38 (4 nM) or the combination of the two, Figure 2
Procedure: as §7

p21 = assay: Western blot, p21 in CRC cell lines; assay type: cell-based; settings: SN38 4 nM, 24 hours, HCT116 and HCT8 cells
Procedure: (§8) Cells were seeded into 6-well plates 24 hours prior to treatment with each drug alone or in combination for 24 hours. Cells were scraped into RIPA buffer containing protease inhibitors, EDTA, NaF, and sodium orthovanadate. Total protein was determined using the Pierce 660 nm Protein Assay (Pierce, Rockford, IL). Thirty micrograms of total protein was loaded onto a 4–12% gradient gel, electrophoresed and transferred to nitrocellulose using the iBlot system (Invitrogen, Carlsbad, CA). Membranes were blocked for one hour at room temperature with Licor Blocking Buffer (Licor, Lincoln, NE) prior to overnight incubation at 4°C with one of the following antibodies: pS6RP, tS6RP, pAKT, tAKT, pERK, tERK, p21, PARP, actin and α-tubulin (Cell Signaling, Beverly, MA). All antibodies were used at a 1∶1000 dilution except for pERK, which was used at 1∶2000. Following primary antibody incubation, blots were washed in TBS-Tween(0.1%), then incubated with the appropriate secondary antibody at 1∶15,000 (Licor, Lincoln, NE) for one hour at room temperature. After three additional washes, blots were developed using the Licor Odyssey (Licor, Lincoln, NE).

cleaved PARP = assay: Western blot, cleaved PARP in CRC cell lines; assay type: cell-based
Procedure: as §8

[2] = Human pharmacokinetics of SN38 after irinotecan from the literature; assay type: in vivo; settings: humans, irinotecan doses ranging from 125–350 mg/m^2, from literature data
Procedure: (§9) In vivo SN38 data was evaluated to define the dose of irinotecan to be used since it is the active metabolite of irinotecan and carboxylesterase conversion of irinotecan to SN38 varies between mice and humans. Based on human and mouse pharmacokinetic data gathered from literature data [27]–[30], [35]–[40], we selected a dose of 10 mg/kg of irinotecan to be administered intravenously once weekly (Table 2).

[3] = Mouse pharmacokinetics of SN38 after irinotecan from the literature; assay type: in vivo; settings: mice, irinotecan 10 mg/kg iv, estimated from literature data
Procedure: as §9

[4] = Human, cited from earlier work
[5] = cited from earlier work; for AUC0→t: t = 6 h
[6] = SN38, mice; cited from earlier work
[7] = SN38, humans; cited from earlier work
[8] = SN38 after irinotecan 125mg/m^2, 1.5 hr INF, ref 27
[9] = SN38 after irinotecan 125mg/m^2, 1.5 hr INF, ref 29
[10] = SN38 after irinotecan 340mg/m^2, 1.5 hr INF
[11] = SN38 after irinotecan 350mg/m^2, 1 hr INF, Week 4 PK with cetuximab
[12] = SN38 after irinotecan 350mg/m^2, 1 hr INF
[13] = SN38 after irinotecan 5mg/kg IV Bolus, Mouse
[14] = SN38 after irinotecan 10mg/kg IV Bolus, Mouse, ref 39
[15] = SN38 after irinotecan 20mg/kg IV Bolus, Mouse
[16] = SN38 after irinotecan 40mg/kg IV Bolus, Mouse

Which results are given for `CCc1c2c(nc3ccc(OC(=O)N4CCC(N5CCCCC5)CC4)cc13)-c1cc3c(c(=O)n1C2)COC(=O)[C@]3(O)CC` [Irinotecan]?
k1 (SD), single agent effect (HT29 tumor xenografts; HT29 (BRAF and PIK3CA mutant), IRI, SN38 concentration used in the model): 0.0092 (0.0023) mL/ng*day-1; average tumor growth inhibition, TGI (HT29 tumor xenografts; HT29 xenografts, 5 mg/kg everolimus PO daily, 10 mg/kg irinotecan iv once weekly, or combination, 28 days): 39%; k1 (SD), single agent effect (HCT116 tumor xenografts; HCT116 (KRAS and PIK3CA mutant), IRI, SN38 concentration used in the model): 0.0149 (0.0086) mL/ng*day-1; average tumor growth inhibition, TGI (HCT116 tumor xenografts; HCT116 xenografts, 5 mg/kg everolimus PO daily, 10 mg/kg irinotecan iv once weekly, or combination, 28 days): 17%; k(0,1) ([1]; K(0,1)IRI): 0.25 h⁻¹; k(3,1) ([1]; compartment 1 (irinotecan) to 3 (SN-38)): 1.91 h⁻¹; V1 ([1]; irinotecan central compartment, Dose = 10 mg/kg): 2.8 L/kg; k(1,2) [1]: 1.15 h⁻¹; k(2,1) [1]: 0.87 h⁻¹; effect on tumor lipids (HT29 tumors): accumulation of lipids

For `CCc1c2c(nc3ccc(O)cc13)-c1cc3c(c(=O)n1C2)COC(=O)[C@]3(O)CC` [SN38], which “%Growth Inhibition” value (HT29 cells; HT29, RAD (20 nM), SN38 (4 nM) or the combination of the two, Figure 2) is on record?
Its value is 59%.

And the IC50 (HT29 cells; HT29 cells)?
Its IC50 is 3 nM.

What about the “%Growth Inhibition” value (HCT116 cells; HCT116, RAD (20 nM), SN38 (4 nM) or the combination of the two, Figure 2) of the same compound?
Its value is 23%.

And the IC50 (HCT116 cells; HCT116 cells)?
The IC50 was over 300 nM.

And the “%Growth Inhibition” value (HCT8 cells)?
The value was 50%.

And the “effect on p21” value (p21)?
The value was “increase”.

What about the “cleaved PARP (MW 89)” value (cleaved PARP; SN38 treated HCT8 cells) of the same compound?
Its value is “A small amount”.

And the “cleaved PARP (MW 89)” value (cleaved PARP; SN38 treated HT29 or HCT116 cells)?
Its value is “not”.

And the “AUCfree of SN38” value [2]?
Its value is 4.4 to 18.6 ng·h/mL.

What about the “AUCfree of SN38” value [3] of the same compound?
The value was 7.5 to 25.8 ng·h/mL.

What about the “k(0,3)” value ([1]; K(0,3)SN38) of the same compound?
The value was 4.67 h⁻¹.

And the V3 ([1]; SN-38 central compartment)?
Its V3 is 2.7 L/kg.

What about the “k(3,4)” value [1] of the same compound?
The value was 1.38 h⁻¹.

What about the “k(4,3)” value [1] of the same compound?
Its value is 5.22 h⁻¹.

And the AUC0→t [4, 8]?
The AUC0→t was 229 ± 108 ng·h/mL.

What about the Cmax [4, 8] of the same compound?
Its Cmax is 26.3 ± 11.9 ng/mL.

What about the t½ [4, 8] of the same compound?
The t½ was 10.4 ± 3.1 h.

What about the AUC0→t [4, 9] of the same compound?
The AUC0→t was 228 ± 149 ng·h/mL.

And the Cmax [4, 9]?
The Cmax was 27 ± 12 ng/mL.

And the t½ [4, 9]?
The t½ was 28.5 h.

And the AUC0→t ([4]; SN38 after irinotecan 180mg/m^2, 1.5 hr INF, footnote a: Week 4 PK with cetuximab)?
The AUC0→t was 222–245 ^a ng·hr/mL.

What about the AUC0→t [4, 10] of the same compound?
The AUC0→t was 474 ± 245 ng·h/mL.

What about the Cmax [4, 10] of the same compound?
The Cmax was 56.0 ± 28.2 ng/mL.

And the t½ [4, 10]?
Its t½ is 21.0 ± 4.3 h.

What about the AUC0→t [4, 11] of the same compound?
Its AUC0→t is 609±531 ^a ng·hr/mL.

And the Cmax [4, 11]?
Its Cmax is 57±20 ^a ng/mL.

And the t½ [4, 11]?
The t½ was 15±23 ^a hr.

What about the AUC0→t [4, 12] of the same compound?
The AUC0→t was 931 ± 948 ng·h/mL.

What about the Cmax [4, 12] of the same compound?
The Cmax was 88 ± 26 ng/mL.

What about the t½ [4, 12] of the same compound?
The t½ was 23 ± 35 h.

What about the “AUC0→∞” value [5, 13] of the same compound?
The value was 279 ^c ng·hr/mL.

What about the Cmax [5, 13] of the same compound?
The Cmax was 647 ng/mL.

What about the Cmax ([5]; SN38 after irinotecan 10mg/kg IV Bolus, Mouse (row r13), estimated from graph in reference) of the same compound?
The Cmax was 443–673 ^b ng/mL.

And the “AUC0→∞” value ([5]; SN38 after irinotecan 10mg/kg IV Bolus, Mouse (row r13))?
The value was 533–1029 ^c ng·hr/mL.

And the Cmax ([5]; SN38 after irinotecan 10mg/kg IV Bolus, Mouse, estimated from graph in reference)?
Its Cmax is 435–600 ^b ng/mL.

And the t½ ([5]; SN38 after irinotecan 10mg/kg IV Bolus, Mouse, ref 36)?
The t½ was 2.2 h.

And the “AUC0→∞” value ([5]; SN38 after irinotecan 10mg/kg IV Bolus, Mouse, ref 37)?
The value was 533–759 ^c ng·hr/mL.

And the “AUC0→∞” value [5, 14]?
Its value is 534 ^c ng·hr/mL.

What about the Cmax [5, 14] of the same compound?
The Cmax was 443 ng/mL.

What about the AUC0→t ([5]; SN38 after irinotecan 10mg/kg IV Bolus, Mouse) of the same compound?
The AUC0→t was 410±60 (t = 6 h) ng·hr/mL.

What about the AUC0→t [5, 15] of the same compound?
Its AUC0→t is 710±240 (t = 6 h) ng·hr/mL.

And the t½ [5, 15]?
The t½ was 3.0 h.

And the AUC0→t [5, 16]?
Its AUC0→t is 1080±110 (t = 6 h) ng·hr/mL.

And the t½ [5, 16]?
Its t½ is 3.4 h.

And the plasma protein binding [6]?
The plasma protein binding was 96.6–98.6%.

And the plasma protein binding [7]?
The plasma protein binding was 98%.
